# Source: patent US20230287416A1, “COMBINATORY TREATMENT OF SMA WITH SARNA AND MRNA MODULATORS” (RACTIGEN THERAPEUTICS, priority 2020, published 2023)
# How the values were obtained:
# Assay type in all cases: cell-based, human
# SMN2 mRNA = assay: RT-qPCR of SMN2FL and SMN2 Δ7 mRNA in GM03813 cells; details: for maximum increase of SMN2FL (ceiling effect): GM03813, 72 h (Example 1)
# From the text: “GM03813 cells” refers to fibroblast cells provided by Coriell Institute for Medical Research. This cell line is described as SPINAL MUSCULAR ATROPHY, TYPE II; SMA2 SURVIVAL OF MOTOR NEURON 1, TELOMERIC; SMN1. The relevant gene is SMN1; the chromosomal location is 5q12.2-q13.3, the allelic variant is described as 1 exons 7 and 8 deleted, SPINAL MUSCULAR ATROPHY, TYPE I; and the identified mutation: is EX7-8DEL.
# Seventy-two hours later, total cellular RNA was isolated from the treated cells and reverse transcribed into cDNA. SMN2 mRNA expression was assessed with RT-qPCR using primer pairs specific for SMN2FL or SMN2 Δ7. SMN2 mRNA expression was also assessed by semi-quantitative RT-PCR using a primer pair that amplifies both SMN2FL and SMN2 Δ7 followed by DdeI digestion (PCR/digestion). […] After digestion, both bands were reduced by 115 bp, resulting in two products: 392 bp (SMN2FL) and 338 bp (SMN2 Δ7) as shown on the gel of FIG. 3D. FIG. 3A-3D show dose-dependent changes in SMN2FL and SMNΔ7 mRNA as assessed by RT-qPCR and PCR/digestion respectively. FIG. 3E-3G are graphic plots of data from quantitating the intensity of bands in FIG. 3D.
# (§1) SMA patient derived fibroblasts were obtained from Coriell Institute (Camden, N.J., USA), including GM00232 (SMA type I with 2 copies of SMN2 gene) and GM03813 (SMA type II with 3 copies of SMN2 gene). These cells were cultured at 5% C02 and 37° C. in modified MEM medium (Gibco, Thermo Fisher Scientific, Carlsbad, Calif.) supplemented with 15% bovine calf serum (Sigma-Aldrich), 1% NEAA (Gibco) and 1% penicillin/streptomycin (Gibco). To transfect oligonucleotides including saRNAs, siRNA and ASO, cells were seeded into 6-well plates at a density of 1×10^5 cells/well and were transfected with oligonucleotides at different concentrations using RNAiMax (Invitrogen, Carlsbad, Calif.) according to the reverse transfection protocol provided by the manufacturer for 72 hours (unless otherwise specified). For Risdiplam treatment of cells, Risdiplam (HY-109101, MedChem Express Company, Monmouth Junction, N.J., USA) dissolved in DMSO was added directly to cells at desired concentration for 72 hours unless specified otherwise.
# For RNA isolation from cultured cells, total cellular RNA was isolated from treated cells using an RNeasy Plus Mini kit (Qiagen, Hilden, Germany) according to its manual. To isolated RNA from animal tissues, tissues were harvested and stored at RNA later (AM7021, Thermo Fisher). Total RNA was then isolated using MagPure Total RNA Micro LQ kit (Magen, R6621, China) by auto-pure96 machine (ALLSHENG, China). The resultant RNA (1 μg) was reverse transcribed into cDNA by using a PrimeScript RT kit containing gDNA Eraser (Takara, Shlga, Japan). The resultant cDNA was amplified in an ABI 7500 Fast Real-time PCR System (Applied Biosystems; Foster City, Calif.) using SYBR Premix Ex Taq 11 (Takara, Shlga, Japan) reagents and primers which specifically amplified full-length (SMN2FL) or A7 SMN2 mRNA (SMN2 Δ7) (FIG. 1). The reaction conditions were: 95° C. for 3 seconds (1 cycle) and 60° C. for 30 seconds (40 cycles). Amplification of TBP gene served as an internal control.
# SMN protein [1] = assay: Western blotting of SMN protein in GM03813 cells; details: GM03813, 72 h
# Procedure: (§2) To further verify the effect of ASO-10-27 and DS06-0004 alone or in combination on SMN2 gene expression, western blotting assays were performed in GM03813 cells transfected individually or in combination with ASO-10-27 and DS06-0004. […] DS06-0004 at 1 nM, 5 nM and 25 nM increased SMN2FL by 1.5-, 1.5- and 1.6-fold, respectively (FIGS. 7B and 7C).
# as §1
# (§3) Proteins were harvested from transfected cells using 1×RIPA Buffer including protease inhibitors and detected the protein concentration by BCA protein assay kits (Beyotime, P0010, China). To isolated proteins from animal tissues, tissues were harvested and lysed using 1×RIPA Buffer. Protein concentrations were measured by using BCA protein assay kits. Protein electrophoresis was performed (10 ug protein/well) with the use of a sodium dodecyl sulfate polyacrylamide gel electrophoresis (PAGE) gel, which was then transferred to a polyvinylidene difluoride (0.45 μm PVDF) membrane. The membranes were blotted with primary anti-SMN (CST, 19276, USA) or anti-α/β-Tubulin (CST, 2148s, USA) antibodies at 4° C. overnight. After three washes with TBST buffer, the membranes were incubated with anti-IgG, horseradish peroxidase-conjugated secondary antibodies (CST, 7074s and 7076s, USA) for 1 h at room temperature (RT). The membranes were then washed with TBST buffer three times for 10 min each and analyzed by Image Lab (BIO-RAD, Chemistry Doctm MP Imaging System). Band densities of SMN protein and α/β-Tubulin were quantified using ImageJ software.
# SMN protein [2] = assay: Western blotting of SMN protein in GM00232 cells; details: GM00232, 72 h
# Procedure: as §2, with “GM00232” for “GM03813”, “1.2, 1.3” for “1.5-, 1.5-”, “1.7 fold,” for “1.6-fold,”, “5B” for “7B”, “5C).” for “7C).”
# as §1, §3
# [3] = GM03813, 72 h, 1 nM (Example 4, FIG. 6A)
# [4] = GM03813, 72 h, 1 nM (Example 8)
# [5] = GM03813, 72 h, 1 nM to 50 nM (Example 1, FIG. 3B)
# [6] = GM03813, 72 h, 5 nM (Example 4)
# [7] = GM03813, 72 h, 5 nM (Example 8)
# [8] = GM03813, 72 h, 25 nM (Example 4)
# [9] = GM03813, 72 h, 25 nM (Example 8)
# [10] = GM03813, 72 h, 100 nM (Example 1)
# [11] = GM03813, 72 h, alone or in combination at 10 nM, RT-qPCR (Example 10, FIG. 12A)
compound,measurement,setting,value
DS06-0004: saRNA targeting SMN2 promoter at -281; SEQ ID NO: 476/477 (Table 8: SEQ ID NO: 131/288) (chain 1 AGACGAGGCCUAAGCAACATT; chain 2 UGUUGCUUAGGCCUCGUCUTT; chemistry not given here),SMN2 Δ7 mRNA fold change,"SMN2 mRNA; GM03813, 72 h, 1 nM (Example 4)",2.5 fold
same,SMN2FL mRNA fold change,SMN2 mRNA; [3],2.1 fold
same,SMN2FL mRNA fold change,SMN2 mRNA; [4],1.7 fold
same,SMN2 Δ7 mRNA fold change,SMN2 mRNA; [4],1.8 fold
same,highest fold change of SMN2FL mRNA,SMN2 mRNA; [5],2.9 fold
same,highest fold change of SMN2 Δ7 mRNA,SMN2 mRNA; [5],2.7 fold
same,SMN2FL mRNA fold change,SMN2 mRNA; [6],2.6 fold
same,SMN2 Δ7 mRNA fold change,SMN2 mRNA; [6],2.5 fold
same,SMN2FL mRNA fold change,SMN2 mRNA; [7],2.2 fold
same,SMN2 Δ7 mRNA fold change,SMN2 mRNA; [7],2.3 fold
same,SMN2FL mRNA fold change,SMN2 mRNA; [8],2.2 fold
same,SMN2 Δ7 mRNA fold change,SMN2 mRNA; [8],2.1 fold
same,SMN2FL mRNA fold change,SMN2 mRNA; [9],2.3 fold
same,SMN2 Δ7 mRNA fold change,SMN2 mRNA; [9],2.3 fold
same,SMN2 mRNA expression,SMN2 mRNA; [10],did not further increase
same,SMN protein fold change,"SMN protein [1]; 1 nM (Example 5, FIG. 7)",1.5 fold
same,SMN protein fold change,SMN protein [1]; 5 nM (Example 5),1.5 fold
same,SMN protein fold change,SMN protein [1]; 25 nM (Example 5),1.6 fold
same,SMN protein fold change,"SMN protein [2]; 1 nM (Example 3, FIG. 5)",1.2 fold
same,SMN protein fold change,SMN protein [2]; 5 nM (Example 3),1.3 fold
same,SMN protein fold change,SMN protein [2]; 25 nM (Example 3),1.7 fold
Nusinersen [ASO-10-27],maximum increase of SMN2FL (ceiling effect),SMN2 mRNA,~2 fold
same,SMN2FL mRNA fold change,"SMN2 mRNA; GM03813, 72 h, 1 nM (Example 1, FIG. 3A)",1.5 fold
same,SMN2FL mRNA fold change,SMN2 mRNA; [3],1.2 fold
same,SMN2 Δ7 mRNA change,"SMN2 mRNA; GM03813, 72 h, 1 nM, 5 nM and 25 nM (Example 4)",decrease
same,SMN2 Δ7 mRNA change,"SMN2 mRNA; GM03813, 72 h, 5 nM (Example 1)",decrease
same,SMN2FL mRNA fold change,SMN2 mRNA; [6],2.1 fold
same,SMN2FL mRNA fold change,"SMN2 mRNA; GM03813, 72 h, 5 nM, peak increase (Example 1, FIG. 3A)",2.0 fold
same,SMN2FL mRNA fold change,SMN2 mRNA; [8],2.1 fold
same,SMN2FL mRNA fold change,SMN2 mRNA; [11],1.4 fold
same,SMN2 Δ7 mRNA fold change,SMN2 mRNA; [11],0.3 fold
same,SMN protein fold change,"SMN protein [1]; 1 nM (Example 5, FIG. 7)",1.2 fold
same,SMN protein fold change,SMN protein [1]; 5 nM (Example 5),1.5 fold
same,SMN protein fold change,SMN protein [1]; 25 nM (Example 5),1.9 fold
same,SMN protein fold change,"SMN protein [1]; alone or in combination at 10 nM (Example 10, FIG. 12D-12E)",2.3 fold
same,SMN protein fold change,"SMN protein [2]; 1 nM (Example 3, FIG. 5)",1.4 fold
same,SMN protein fold change,SMN protein [2]; 5 nM (Example 3),2.3 fold
same,SMN protein fold change,SMN protein [2]; 25 nM (Example 3),2.9 fold
Cc1cn2nc(-c3cc(=O)n4cc(N5CCNC6(CC6)C5)ccc4n3)cc(C)c2n1 [Risdiplam],maximum increase of SMN2FL (ceiling effect),SMN2 mRNA,~2 fold
same,SMN2FL mRNA fold change,"SMN2 mRNA; GM03813, 72 h, 50 nM (Example 8, FIG. 10A-10C)",1.0 fold
same,SMN2 Δ7 mRNA change,"SMN2 mRNA; GM03813, 72 h, 50 nM, 250 nM and 1250 nM (Example 8)",decrease
same,decrease of SMN2 Δ7 mRNA,SMN2 mRNA; [10],36%
same,SMN2FL mRNA fold change,"SMN2 mRNA; GM03813, 72 h, 100 nM (Example 1, FIG. 3C)",1.2 fold
same,SMN2FL mRNA fold change,"SMN2 mRNA; GM03813, 72 h, 250 nM (Example 8)",1.4 fold
same,decrease of SMN2 Δ7 mRNA,"SMN2 mRNA; GM03813, 72 h, 1000 nM (Example 1)",98%
same,SMN2FL mRNA fold change,"SMN2 mRNA; GM03813, 72 h, 1000 nM (Example 1, FIG. 3C)",1.8 fold
same,SMN2FL mRNA fold change,"SMN2 mRNA; GM03813, 72 h, 1250 nM (Example 8)",2.1 fold
same,SMN protein fold change,"SMN protein [1]; 50 nM (Example 9, FIG. 11)",1.1 fold
same,SMN protein fold change,SMN protein [1]; 250 nM (Example 9),1.7 fold
same,SMN protein fold change,"SMN protein [2]; 50 nM (Example 7, FIG. 9)",1.7 fold
same,SMN protein fold change,SMN protein [2]; 250 nM (Example 7),1.9 fold
same,SMN protein fold change,SMN protein [2]; 1250 nM (Example 7),2.6 fold
